Converted amounts (≈) assume the structure as drawn. The source made the active and inactive calls. The calls are words filed in the database; no cut-off is given here.
Legend:
Bacillus cereus [1] = test: Antibacterial against Bacillus cereus ATCC 11778 after 24 hrs by NCCLS M7-A6 method; assay type: functional; settings: Bacillus cereus, ATCC 11778, 24 h; read-out: MIC
Escherichia coli [2] = test: Antibacterial against Escherichia coli ATCC 10536 after 24 hrs by NCCLS M7-A6 method; assay type: functional; settings: ATCC 10536, 24 h
Bacillus subtilis [3] = test: Antibacterial against Bacillus subtilis ATCC 6633 after 24 hrs by NCCLS M7-A6 method; assay type: functional; settings: Bacillus subtilis, ATCC 6633, 24 h; read-out: MIC
Micrococcus luteus [4] = test: Antibacterial against Micrococcus luteus ATCC 9341 after 24 hrs by NCCLS M7-A6 method; assay type: functional
Staphylococcus aureus [5] = test: Antibacterial against Staphylococcus aureus ATCC 6538P after 24 hrs by NCCLS M7-A6 method; assay type: functional
Staphylococcus aureus [6] = test: Antibacterial against Staphylococcus aureus ATCC 6538 after 24 hrs by NCCLS M7-A6 method; assay type: functional; settings: ATCC 6538, 24 h
Bacillus cereus [7] = test: Antibacterial against Bacillus cereus ATCC 11778 at 20 mg/mL after 24 hrs by NCCLS M7-A6 method; assay type: functional, organism-based
Escherichia coli [8] = test: Antibacterial against Escherichia coli ATCC 10536 at 20 mg/mL after 24 hrs by NCCLS M7-A6 method; assay type: functional, organism-based
Bacillus subtilis [9] = test: Antibacterial against Bacillus subtilis ATCC 6633 at 20 mg/mL after 24 hrs by NCCLS M7-A6 method; assay type: functional, organism-based
Escherichia coli [10] = test: Antibacterial against Escherichia coli ATCC 8739 at 20 mg/mL after 24 hrs by NCCLS M7-A6 method; assay type: functional, organism-based
Staphylococcus aureus [11] = test: Antibacterial against Staphylococcus aureus ATCC 6538 at 20 mg/mL after 24 hrs by NCCLS M7-A6 method; assay type: functional, organism-based
Staphylococcus aureus [12] = test: Antibacterial against Staphylococcus aureus ATCC 6538P at 20 mg/mL after 24 hrs by NCCLS M7-A6 method; assay type: functional, organism-based
Micrococcus luteus [13] = test: Antibacterial against Micrococcus luteus ATCC 10240 at 20 mg/mL after 24 hrs by NCCLS M7-A6 method; assay type: functional, organism-based
[14] = Micrococcus luteus, ATCC 9341, 24 h, read-out: MIC

O=c1ccc2ccc(OCCN3CCOCC3)cc2o1
MIC (Bacillus cereus [1]): 72.6 mM (≈ 20000 µg/mL) | MIC (Escherichia coli [2]): 36.3 mM (≈ 9990 µg/mL) | MIC (Bacillus subtilis [3]): 72.6 mM (≈ 20000 µg/mL) | MIC (Micrococcus luteus [4]; [14]): 18.2 mM (≈ 5010 µg/mL) | MIC (Staphylococcus aureus [5]): 36.3 mM (≈ 9990 µg/mL) | MIC (Staphylococcus aureus [6]): 72.6 mM (≈ 20000 µg/mL)

Cc1cc(=O)oc2cc(OCCN(C)Cc3ccccc3)ccc12
Activity (Bacillus cereus [7]): inactive | Activity (Escherichia coli [8]): inactive | Activity (Bacillus subtilis [9]): inactive | MIC (Micrococcus luteus [4]; [14]): 40.7 mM (≈ 13200 µg/mL) | Activity (Escherichia coli [10]): inactive | Activity (Staphylococcus aureus [11]): inactive | Activity (Staphylococcus aureus [12]): inactive

CCN(CC)CCOc1ccc2c(C)cc(=O)oc2c1
MIC (Bacillus cereus [1]): 2 mM (≈ 551 µg/mL) | MIC (Escherichia coli [2]): 8 mM (≈ 2200 µg/mL) | MIC (Bacillus subtilis [3]): 2 mM (≈ 551 µg/mL) | MIC (Micrococcus luteus [4]; [14]): 2 mM (≈ 551 µg/mL) | MIC (Staphylococcus aureus [5]): 32.1 mM (≈ 8840 µg/mL) | MIC (Staphylococcus aureus [6]): 32.1 mM (≈ 8840 µg/mL)

CC(=O)c1cc2c(C)cc(=O)oc2cc1OCCN(C)Cc1ccccc1
MIC (Bacillus cereus [1]): 24.3 mM (≈ 8880 µg/mL) | MIC (Escherichia coli [2]): 24.3 mM (≈ 8880 µg/mL) | MIC (Bacillus subtilis [3]): 24.3 mM (≈ 8880 µg/mL) | MIC (Micrococcus luteus [4]; [14]): 1.5 mM (≈ 548 µg/mL) | MIC (Staphylococcus aureus [5]): 24.3 mM (≈ 8880 µg/mL) | MIC (Staphylococcus aureus [6]): 24.3 mM (≈ 8880 µg/mL)

CCN(CC)CCOc1ccc2c(C)cc(=O)oc2c1C(C)=O.Cl
MIC (Micrococcus luteus [4]): 3.5 mM

Cc1cc(=O)oc2cc(OCCN3CCOCC3)ccc12
MIC (Bacillus cereus [1]): 69.1 mM (≈ 20000 µg/mL) | MIC (Escherichia coli [2]): 51.8 mM (≈ 15000 µg/mL) | MIC (Bacillus subtilis [3]): 69.1 mM (≈ 20000 µg/mL) | MIC (Micrococcus luteus [4]; [14]): 8.6 mM (≈ 2490 µg/mL) | MIC (Staphylococcus aureus [5]): 69.1 mM (≈ 20000 µg/mL) | Activity (Staphylococcus aureus [11]): inactive

Cc1cc(=O)oc2cc(OCC[N+]3(C)CCCCC3C)ccc12 (stereo unspecified)
Activity (Escherichia coli [8]): inactive | MIC (Bacillus cereus [1]): 45.1 mM | MIC (Bacillus subtilis [3]): 22.6 mM | MIC (Micrococcus luteus [4]; [14]): 22.6 mM | Activity (Escherichia coli [10]): inactive | Activity (Staphylococcus aureus [11]): inactive | Activity (Staphylococcus aureus [12]): inactive

CC(=O)c1c(OCCN2CCCCC2)ccc2c(C)cc(=O)oc12
MIC (Bacillus cereus [1]): 26.1 mM (≈ 8600 µg/mL) | MIC (Escherichia coli [2]): 13 mM (≈ 4280 µg/mL) | MIC (Bacillus subtilis [3]): 39.1 mM (≈ 12900 µg/mL) | MIC (Micrococcus luteus [4]; [14]): 6.5 mM (≈ 2140 µg/mL) | MIC (Staphylococcus aureus [5]): 39.1 mM (≈ 12900 µg/mL) | MIC (Staphylococcus aureus [6]): 39.1 mM (≈ 12900 µg/mL)

CC(=O)c1c(OCCN2CCOCC2)ccc2c(C)cc(=O)oc12
Activity (Bacillus cereus [7]): inactive | Activity (Escherichia coli [8]): inactive | Activity (Bacillus subtilis [9]): inactive | MIC (Micrococcus luteus [4]; [14]): 30.2 mM (≈ 10000 µg/mL) | Activity (Escherichia coli [10]): inactive | Activity (Staphylococcus aureus [11]): inactive | Activity (Staphylococcus aureus [12]): inactive

Cc1cc(=O)oc2cc(OCCN3CCCCC3C)ccc12 (stereo unspecified)
MIC (Bacillus cereus [1]): 28.8 mM (≈ 8680 µg/mL) | MIC (Escherichia coli [2]): 14.4 mM (≈ 4340 µg/mL) | MIC (Bacillus subtilis [3]): 14.4 mM (≈ 4340 µg/mL) | MIC (Micrococcus luteus [4]; [14]): 14.4 mM (≈ 4340 µg/mL) | MIC (Staphylococcus aureus [5]): 28.8 mM (≈ 8680 µg/mL) | MIC (Staphylococcus aureus [6]): 43.2 mM (≈ 13000 µg/mL)

CCN(CC)CCOc1ccc2c(C)cc(=O)oc2c1C(C)=O
Activity (Bacillus cereus [7]): inactive | Activity (Escherichia coli [8]): inactive | Activity (Bacillus subtilis [9]): inactive | Activity (Escherichia coli [10]): inactive | Activity (Staphylococcus aureus [11]): inactive | Activity (Staphylococcus aureus [12]): inactive

CCN(CC)CCOc1ccc2ccc(=O)oc2c1
MIC (Bacillus cereus [1]): 8.4 mM (≈ 2200 µg/mL) | MIC (Escherichia coli [2]): 16.8 mM (≈ 4390 µg/mL) | MIC (Bacillus subtilis [3]): 8.4 mM (≈ 2200 µg/mL) | MIC (Micrococcus luteus [4]; [14]): 8.4 mM (≈ 2200 µg/mL) | MIC (Staphylococcus aureus [5]): 67.2 mM (≈ 17600 µg/mL) | Activity (Staphylococcus aureus [11]): inactive

CC(=O)c1c(OCCN(C(C)C)C(C)C)ccc2c(C)cc(=O)oc12
Activity (Bacillus cereus [7]): inactive | Activity (Escherichia coli [8]): inactive | Activity (Micrococcus luteus [13]): inactive | Activity (Bacillus subtilis [9]): inactive | MIC (Micrococcus luteus [4]; [14]): 25 mM (≈ 8640 µg/mL) | Activity (Escherichia coli [10]): inactive | Activity (Staphylococcus aureus [11]): inactive | Activity (Staphylococcus aureus [12]): inactive

CC1CCCCN1CCOc1ccc2ccc(=O)oc2c1 (stereo unspecified)
MIC (Bacillus cereus [1]): 30.9 mM (≈ 8880 µg/mL) | MIC (Escherichia coli [2]): 30.9 mM (≈ 8880 µg/mL) | MIC (Bacillus subtilis [3]): 30.9 mM (≈ 8880 µg/mL) | MIC (Micrococcus luteus [4]; [14]): 15.4 mM (≈ 4430 µg/mL) | MIC (Staphylococcus aureus [5]): 61.8 mM (≈ 17800 µg/mL) | MIC (Staphylococcus aureus [6]): 46.3 mM (≈ 13300 µg/mL)

CC(=O)c1cc2c(C)cc(=O)oc2cc1OCCN1CCCCC1
MIC (Bacillus cereus [1]): 1.7 mM (≈ 560 µg/mL) | MIC (Escherichia coli [2]): 13.3 mM (≈ 4380 µg/mL) | MIC (Bacillus subtilis [3]): 1.7 mM (≈ 560 µg/mL) | MIC (Micrococcus luteus [4]; [14]): 1.7 mM (≈ 560 µg/mL) | MIC (Staphylococcus aureus [5]): 6.7 mM (≈ 2210 µg/mL) | MIC (Staphylococcus aureus [6]): 13.3 mM (≈ 4380 µg/mL)

C[N+](C)(CCOc1ccc2ccc(=O)oc2c1)Cc1ccccc1
MIC (Bacillus cereus [1]): 21.2 mM | MIC (Escherichia coli [2]): 21.2 mM | MIC (Bacillus subtilis [3]): 21.9 mM | MIC (Micrococcus luteus [4]; [14]): 1.4 mM | MIC (Staphylococcus aureus [5]): 21.2 mM | MIC (Staphylococcus aureus [6]): 21.2 mM

— ChEMBL document CHEMBL1781990, “Synthesis and pharmacological activity of O-aminoalkyl derivatives of 7-hydroxycoumarin” (2011)
